What is called IC50 is the midpoint of a concentration-inhibition curve.

Like-named read-outs stand apart in the source and are kept apart here.

The text below walks through data of patent US9908886B2 (Agency for Science, Technology and Research, priority 2012, dated 2018).

For assay [1], the system named is eIF4E phosphorylation in K562 cells. Put plainly: Western blot of eIF4E phosphorylation in BC-CML cell line. As to conditions: various concentrations, 24 h. Type of assay: cell-based. How it is done: K562 cell line was obtained from the ATCC, and grown in RPMI supplemented with 10% FCS, L-glutamine, and penicillin/streptomycin.
Exponentially growing cells were plated at 2×10^5 cells/ml, and whole cell lysate processed for western blot analysis using antibodies recognizing eIF4E, phospho-eIF4E (Cell signaling Technology),
In general terms: A western blot detects proteins with antibodies after separation by electrophoresis.

A further assay addresses MNK2 (Homo sapiens (Human), UniProt Q9HBH9). Put plainly: In vitro MNK kinase assay (Caliper LabChip mobility shift). Type of assay: biochemical.
Assay [2] has as its system CD34+ BC-CML primary cells. Put plainly: Serial replating assay. Type of assay: cell-based, human. As to conditions: for serial replating efficiency of CD34+ BC cells: increasing dose, 48 hr treatment, compared to DMSO. The source says: Cord Blood (CB) samples were purchased from the Singapore Cord Blood bank. CML samples were the Singapore General Hospital after signed informed consent under local IRB-approved procedures. MNCs were obtained using Ficoll separation, and CD34^+ cells selected by immunomagnetic beads (Miltenyi Biotech, Germany).
CD34-enriched CB and BC cells were thawed and allowed to recover overnight in serum-free StemPro media (Invitrogen, Carlsbad, Calif.), supplemented with human growth factors and 1× nutrient supplement (Invitrogen). Cells were then subjected to drug treatment for 48 hr, harvested, washed, and seeded in methycellulose (H4434, […] Technologies, Canada). Colonies were enumerated after 2 weeks, individually picked, and replated in fresh methylcellulose in a 96-well format, and counted at 2 weeks. Three rounds of serial replating (representing>8 weeks in culture) were performed.

For another assay, the target named is MNK1 (Homo sapiens, UniProt Q9BUB5). Kind of assay: In vitro MNK kinase assay (Caliper LabChip mobility shift). Type of assay: biochemical.
Assay [3] deals with eIF4E Ser209 phosphorylation in Hela cells. Put plainly: MNK cell-based assay, AlphaScreen SureFire. To be noted: 2 hours. The source says:
It has been reported that Ser209 of eIF4E is solely phosphorylated by the MNK enzymes. The ability of compounds to inhibit this process in Hela cells was investigated using the AlphaScreen SureFire® assay platform from Perkin Elmer (Waltham, Mass.). eIF4E phosphorylated on Ser209 is recognized by two antibodies, the first which is fused to a streptavidin coated donor bead binds to an epitope away from Ser209, the second which is fused to a protein A conjugated acceptor bead binds to phosphorylated Ser209. The phosphorylation of eIF4E on Ser209 brings the two antibodies into close proximity and when excited by a laser a singlet oxygen is released by the donor bead which excites the acceptor bead resulting in the emission of light. This enables the monitoring of eIF4E Ser209 phosphorylation and its inhibition in a cellular context.
Hela cells were seeded into microtitre plates (30,000 cells per well) in 100 μl of culture medium and incubated at 37° C. for 24 hours. The media was then removed by aspiration and the cells resuspended in 50 μl of serum free medium containing the test compound and incubated at 37° C. for 2 hours. The culture medium was again removed by aspiration and the cells resuspended in lysis buffer (provided in Perkin Elmer SureFire® Assay Kit). After agitation at 350 rpm for 20 minutes at 22° C., 4 μl was transferred to a 384 well OptiPlate™ (Perkin Elmer, Waltham, Mass.). To each well was added 5 μl of acceptor mix; the plate was sealed and agitated gently at 22° C. for 2 hours. Then, in subdued light, 2 μl of donor mix was added to each well, the plate was sealed, wrapped in aluminum foil and agitated gently at 22° C. for 2 hours. Emission was measured using the EnVision® plate reader (Perkin Elmer, Waltham, Mass.).
Inhibition constants (IC50) were determined by plotting AlphaScreen signal versus log compound concentration and fitting with a non-linear regression algorithm using GraphPad Prism (GraphPad Software Inc.).
For orientation: Bead proximity is the source of the signal in Alpha formats.

The subject of assay [4] is K562 cells over-expressing eIF4E. Put plainly: Cell cytotoxicity assay (CellTiter-Glo). As to conditions: 48 hours extended to 6 days. Type of assay: cell-based. As for the experimental part:
(§1) Cancer cell lines, MV-4-11 (leukemia), P116.c139 (acute T cell leukemia) and D1.1 (acute T cell leukemia), were purchased from ATCC and cultured according to supplier's recommendations. K562 cells (myelogenous leukemia) over-expressing eIF4E, were also used for the cytotoxicity assay. For cells treated for 48 hours, 5000 cells were seeded in 70 μl of growth medium in black, flat-bottom 96-well plate. For cells treated for six days, 1000 cells were seeded in 70 μl of growth medium in black, flat-bottom 96-well plate. […] 50 μl of the diluted compounds was added to the cells and incubated at 37° C. in 5% CO2. After 48 hours or six days treatment, cell viability was determined by CellTiter-Glo Luminescent Cell Viability Assay (Promega, Madison, Wis.). 120 μl of the reagent was added to the cells and luminescence was measured using Tecan Safire Reader. Data was analysed with Graphpad Prism software and the figures represented indicate the half maximal inhibitory concentration (IC50). Error bars denote standard deviation (SD).
A general note: In ATP-based viability assays light output follows the ATP content of the culture.

The next assay concerns D1.1 cells. Kind of assay: Cell cytotoxicity assay (CellTiter-Glo). To be noted: 48 hours extended to 6 days. Type of assay: cell-based. How it is done:
as §1

The test system of a further assay is P116.c139 cells. Put plainly: Cell cytotoxicity assay (CellTiter-Glo). Type of assay: cell-based. To be noted: 48 hours extended to 6 days. As for the experimental part:
as §1

In assay [5] the test system is eIF4E phosphorylation in BC GMPs. To be noted: background section; cited from earlier work.
Assay [6] deals with CD34+ BC-CML primary cells. To be noted: background section; including cells carrying T315I mutation; cited from earlier work.
Setting [7] is: enzymatic, 250 μM ATP, read-out: IC50 Mnk2.
Setting [8] is: enzymatic, 1.2 mM ATP, read-out: IC50 Mnk1.

Sequence of MNK2 (Q9HBH9 84-388): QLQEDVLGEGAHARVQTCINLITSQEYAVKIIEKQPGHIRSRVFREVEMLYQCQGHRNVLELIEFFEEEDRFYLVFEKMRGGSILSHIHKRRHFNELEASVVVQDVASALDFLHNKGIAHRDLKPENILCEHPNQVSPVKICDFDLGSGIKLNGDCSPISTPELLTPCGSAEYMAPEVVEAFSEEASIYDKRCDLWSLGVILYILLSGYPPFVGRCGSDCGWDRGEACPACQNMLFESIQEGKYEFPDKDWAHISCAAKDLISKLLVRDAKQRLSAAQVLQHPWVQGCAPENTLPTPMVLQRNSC

Consider `CN1CCN(C(=O)c2ccc(-c3cn4c(-c5ccc(O)cc5)cnc4cn3)cc2)CC1` [Example 1, (4-(3-(4-hydroxyphenyl)imidazo[1,2-a]pyrazin-6-yl)phenyl)(4-methylpiperazin-1-yl)methanone], for which the eIF4E phosphorylation result in assay [1] was “prevent eIF4E phosphorylation”. Further, the IC50 on MNK2 (setting [7]) and at MNK1 (setting [8]) was below 100 nM in each case. Besides, the “serial replating efficiency of CD34+ BC cells” value in assay [2] is recorded as “retards the serial replating efficiency”.

As for `O=C(c1ccc(-c2cn3c(-c4ccc(O)cc4)cnc3cn2)cc1)N1CCOCC1` [Example 2, (4-(3-(4-hydroxyphenyl)imidazo[1,2-a]pyrazin-6-yl)phenyl)(morpholino)methanone], the eIF4E phosphorylation entry in assay [1] is “prevent eIF4E phosphorylation”. Besides, the half-inhibitory concentration (IC50) at MNK2 (setting [7]) and at MNK1 (setting [8]) was below 1000 nM throughout. Further, in assay [2] (at 10.0 μM and 20.0), the “ability of BC cells to serial replate” value is on record as “potently impaired the ability of BC cells to serial replate”. For the same compound, the “serial replating efficiency of CD34+ BC cells” value in assay [2] is reported as “retards serial replating efficiency”.

On to `CN1CCN(C(=O)c2ccc(-c3cn4c(-c5ccc(C#N)cc5)cnc4cn3)cc2)CC1` [Example 6, 4-(6-(4-(4-methylpinerazine-1-carbonyl)phenyl)imidazo[1,2-a]pyrazin-3-yl)benzonitrile], for which the eIF4E phosphorylation result in [1] is “prevent eIF4E phosphorylation”.

Turning to `CN1CCN(C(=O)c2ccc(-c3ccc4ncc(-c5ccc(C#N)cc5)n4n3)cc2)CC1` [Example 54], the IC50 in assay [3] (Homo sapiens) was below 1000 nM.

In assay [3], `N#Cc1ccc(-c2cnc3ccc(-c4ccc(C(=O)N5CCN(c6ccncc6)CC5)cc4)cn23)cc1` [Example 125, 4-(6-(4-(4-(pyridin-4-1)piperazine-1-carbonyl)phenyl)imidazo[1,2-a]pyridin-3-yl)benzonitrile] returned an IC50 below 1000 nM.

`CN1CCN(C2CCN(C(=O)c3ccc(-c4ccc5ncc(-c6ccc(C#N)cc6)n5c4)cc3)CC2)CC1` [Example 133, 4-(6-(4-(4(4-methylpiperazin-1-yl)piperidine-1-carbonyl)phenyl)imidazo[1,2-a]pyridin-3-yl)benzonitrile]: the half-maximal inhibitory concentration (IC50) at MNK2 (setting [7]) and at MNK1 (setting [8]) was below 100 nM throughout. Moreover, the “change of IC50 with treatment duration, K562 cells over-expressing eIF4E” value in assay [4] is listed as “not influenced by the treatment duration”. In addition, in the assay with D1.1 cells, the “change of IC50 with treatment duration, D1.1 cells” value is on record as “not influenced by the treatment duration”. In the assay on P116.c139 cells, the “change of IC50 with treatment duration, P116.c139 cells” value is listed as “decrease the IC50 by more than half-fold”.

Turning to `CN1CCN(C(=O)c2ccc(-c3ccc4ncc(-c5ccc(C#N)cc5)n4c3)cc2O)CC1` [Example 143, 4-(6-(3-hydroxy-4-(4-methylpiperazine-1-carbonyl)phenyl)imidazo[1,2-a]pyridin-3-yl)benzonitrile], the IC50 at MNK2 (setting [7]) is below 100 nM; in [3] (Homo sapiens) it was below 1000 nM; on MNK1 (setting [8]), below 100 nM.

Regarding `CN1CCN(C(=O)c2ccc(-c3ccc4ncc(-c5ccc(C#N)cc5)n4c3)c(O)c2)CC1` [Example 144, 4-(6-(2-hydroxy-4-(4-methylpiperazine-1-carbonyl)phenyl)imidazo[1,2-a]pyridin-3-yl)benzonitrile], the IC50 at MNK2 (setting [7]) is below 100 nM; in [3] (Homo sapiens), below 1000 nM; at MNK1 (setting [8]) it was below 100 nM.

Turning to `NC1CCN(C(=O)c2ccc(-c3ccc4ncc(-c5ccc(Cl)cc5)n4c3)cc2)CC1` [Example 174, (4-aminopiperidin-1-yl)(4-(3-(4-chlorophenyl)imidazo[1,2-a]pyridin-6-yl)phenyl)methanone], the IC50 on MNK2 (setting [7]) and at MNK1 (setting [8]) was below 100 nM each time.

Turning to `CN1CCN(C2CCN(C(=O)c3ccc(-c4ccn5ncc(-c6ccc(C#N)cc6)c5n4)cc3)CC2)CC1` [Example 179, 4-(5-(4-(4-(4-methylpiperazin-1-yl)piperidine-1-carbonyl)phenyl)pyrazolo[1,5-a]pyrimidin-3-yl)benzonitrile], the concentration for half-maximal inhibition (IC50) at MNK2 (setting [7]) and on MNK1 (setting [8]) was below 100 nM throughout.

On to `N#Cc1ccc(-c2cnn3ccc(-c4ccc(C(=O)N5CCCOCC5)cc4)nc23)cc1` [Example 181, 4-(5-(4-(1,4-oxazepane-4-carbonyl)phenyl)pyrazolo[1,5-a]pyrimidin-3-yl)benzonitrile], for which the IC50 on MNK2 (setting [7]) and on MNK1 (setting [8]) was below 100 nM throughout.

As for `N#Cc1ccc(-c2cnn3ccc(-c4ccc(C(=O)N5CCNCC5)cc4)nc23)cc1` [Example 183, 4-(5-(4-(piperazine-1-carbonyl)phenyl)pyrazolo[1,5-a]pyrimidin-3-yl)benzonitrile], the half-maximal inhibitory concentration (IC50) at MNK2 (setting [7]) and at MNK1 (setting [8]) was below 100 nM each time.

`CC(=O)N1CCN(C(=O)c2ccc(-c3ccn4ncc(-c5ccc(C#N)cc5)c4n3)cc2)CC1` [Example 184]: the half-inhibitory concentration (IC50) at MNK2 (setting [7]) and at MNK1 (setting [8]) was below 100 nM each time.

Turning to `N#Cc1ccc(-c2cnn3ccc(-c4ccc(C(=O)N5CCOCC5)cc4)nc23)cc1` [Example 185, 4-(5-(4-(morpholine-4-carbonyl)phenyl)pyrazolo[1,5-a]pyrimidin-3-yl)benzonitrile], the 50% inhibitory concentration (IC50) at MNK2 (setting [7]) and at MNK1 (setting [8]) was below 100 nM each time.

On to `CC(=O)NC1CCN(C(=O)c2ccc(-c3ccn4ncc(-c5ccc(C#N)cc5)c4n3)cc2)CC1` [Example 186, N-(1-(4-(3-(4-cyanophenyl)pyrazolo[1,5-a]pyrimidin-5-yl)benzoyl)piperidin-4-yl)acetamide], for which the IC50 at MNK2 (setting [7]) and at MNK1 (setting [8]) was below 100 nM in each case.

Regarding `N#Cc1ccc(-c2cnn3ccc(-c4ccc(C(=O)N5CCOCC5)c(O)c4)nc23)cc1` [Example 187, 4-(5-(3-hydroxy-4-(morpholine-4-carbonyl)phenyl)pyrazolo[1,5-a]pyrimidin-3-yl)benzonitrile], the concentration for half-maximal inhibition (IC50) on MNK2 (setting [7]) and at MNK1 (setting [8]) was below 100 nM in each case.

As to `N#Cc1ccc(-n2cnc3ccc(-c4ccc(C(=O)N5CCOCC5)cc4)cc32)cc1` [Example 190, 4-(6-(4-(morpholine-4-carbonyl)phenyl)-1H-benzo[d]imidazol-1-yl)benzonitrile], the half-maximal inhibitory concentration (IC50) at MNK2 and at MNK1 was below 1000 nM throughout.

`Cc1ccc(NC(=O)c2ccc(CN3CCN(C)CC3)cc2)cc1Nc1nccc(-c2cccnc2)n1` [imatinib]: the “eIF4E phosphorylation in BC GMPs” value in assay [5] is on record as “not”. Moreover, the “ability of CD34+ BC cells to serially replate for more than 8 weeks in methylcellulose” value in [6] is reported as “only partially impaired”.

In [3], “N-(1-(4-(3-(4-chlorophenyl)imidazo[1,2-a]pyrazin-6-yl)benzoyl)piperidin-4-yl)-2,2,2-acetamide [Example 49]” had a half-inhibitory concentration (IC50) below 1000 nM.

Consider “N-(5-(3-(4-cyanophenyl)imidazo[1,2-b]pyridazin-6-yl)-2-morpholine-4-carbonyl)phenyl)acetamide [Example 80]”, for which the IC50 in assay [3] was below 1000 nM.
